According to PMC8683663 (International Journal of Pharmaceutics: X, 2021):
Values after ≈ are worked out from the molar mass of the structure shown. Where two headings read alike, the source gives them in different places. Values belong to the compound of their own block, whether it stands above or below them.

Assays:
[1] = 10 mg/kg encequidar, oral; ref Smolinski et al., 2021; cited from earlier work
[2] = Bidirectional etoposide permeability across Caco-2 cell monolayers; format: in vitro ADME; settings: human, Caco-2, pH 7.4
Caco-2 cell monolayers [3] = experiment: as above; format: in vitro ADME; settings: in the presence of more than 79 nM zosuquidar; Caco-2
[4] = Etoposide solubility in ethanol-water mixtures; format: physicochemical; settings: 22 °C, thermodynamic from solid
[5] = Pharmacokinetic dose escalation study in rats; format: in vivo, Sprague Dawley rats; settings: for bioavailability: Etoposide Bioavailability; for Zosuquidar tmax: median [Q1;Q3]
[6] = ref Al-Ali et al., cited from earlier work; for oral bioavailability of etoposide: 2020
[7] = mdr1a(−/−) (P-gp) knockout rats; ref Al-Ali et al., 2018a; cited from earlier work
[8] = for precipitation upon dilution in rSIF (visual): 1:1 in rSIF; for initial zosuquidar solubility: supernatant, 37 °C
[9] = Zosuquidar recovery in the compartments of the Caco-2 Transwell system; format: in vitro ADME; settings: for zosuquidar left in solution / zosuquidar recovery: 120 min, mean ± SEM, n = 24; for zosuquidar left in solution: % of added
[10] = weak base; ref Drugbank, 2021; cited from earlier work
[11] = 20 mg/kg zosuquidar IV; ref Anderson et al., 2006; cited from earlier work
P-gp = experiment: In vitro-in vivo correlation of P-gp inhibition; settings: 180 μM intestinal concentration in vivo vs. 5–10 nM in Caco-2
Caco-2 cell monolayers [12] = experiment: Lucifer yellow permeability; format: in vitro ADME
[13] = etoposide 5 mg/kg IV, by an oral dose of 20 mg/kg zosuquidar (group B vs A)
[14] = group B: zosuquidar 20 mg/kg oral + etoposide 5 mg/kg IV, mean ± SEM, n = 6
[15] = group F: zosuquidar 0.63 mg/kg oral + etoposide 20 mg/kg oral, mean ± SEM, n = 6
[16] = group G: zosuquidar 2.0 mg/kg oral + etoposide 20 mg/kg oral, mean ± SEM, n = 6
[17] = group H: zosuquidar 6.3 mg/kg oral + etoposide 20 mg/kg oral, mean ± SEM, n = 6
[18] = group I: zosuquidar 20 mg/kg oral + etoposide 20 mg/kg oral, mean ± SEM, n = 6
[19] = group J: zosuquidar 63 mg/kg oral + etoposide 20 mg/kg oral, mean ± SEM, n = 6

Compound: COc1cc2c(cc1OC)CN(CCc1ccc(-n3nnc(-c4cc(OC)c(OC)cc4NC(=O)c4cc(=O)c5ccccc5o4)n3)cc1)CC2 [encequidar]
encequidar Cmax [1]: 7.1 ng/mL | encequidar bioavailability [1]: 6.25%

recovery at 120 min, 50 µM [2]: 95 to 117% | decrease of etoposide B-A permeability (Caco-2 cell monolayers [3]): 5 fold | increase of etoposide A-B permeability (Caco-2 cell monolayers [3]): 4 fold | solubility at 24 h ([4]; absolute ethanol, organic solvent or mixture): 891 ± 8 µg/mL (≈ 1510 µM) | solubility at 24 h ([4]; ethanol-water mixture): 9230 ± 420 µg/mL (≈ 15700 µM) | solubility at 24 h ([4]; water): 92.4 ± 3.4 µg/mL (≈ 157 µM) | increase of etoposide AUC0-6h [5, 13]: 34% | increase of etoposide t½ [5, 13]: 37% | Etoposide Bioavailability ([5]; group D: etoposide 20 mg/kg oral, no zosuquidar, mean ± SEM, n = 6): 5% | AUC(0-t) ([5]; male, Sprague Dawley, rat, plasma, po, 20 mg/kg, Etoposide AUC0-6h, group I: etoposide 20 mg/kg oral + zosuquidar 20 mg/kg oral, mean ± SEM, n = 6): 3530 ± 460 ng·h/mL | bioavailability ([5]; male, Sprague Dawley, rat, plasma, po, 20 mg/kg, group D: etoposide 20 mg/kg oral, no zosuquidar, mean ± SEM, n = 6): 5.5 ± 0.9% | bioavailability ([5]; male, Sprague Dawley, rat, plasma, po, 20 mg/kg, group I: etoposide 20 mg/kg oral + zosuquidar 20 mg/kg oral, mean ± SEM, n = 6): 20.5 ± 2.7% | precipitation upon dilution in rSIF (visual) ([8]; etoposide, any formulation): did not precipitate
Compound: COc1cc([C@@H]2c3cc4c(cc3[C@@H](O[C@@H]3O[C@@H]5CO[C@@H](C)O[C@H]5[C@H](O)[C@H]3O)[C@H]3COC(=O)[C@H]23)OCO4)cc(OC)c1O [etoposide]
oral bioavailability of etoposide ([6]; 20 mg/kg etoposide oral + 20 mg/kg oral zosuquidar): 34.5% | absolute etoposide bioavailability ([6]; wild-type rats, 2018a): 27 ± 5% | oral bioavailability of etoposide ([6]; without zosuquidar): 4.0% | oral etoposide bioavailability [7]: 92%

Compound: O[C@@H](COc1cccc2ncccc12)CN1CCN([C@@H]2c3ccccc3[C@@H]3[C@H](c4ccccc42)C3(F)F)CC1 [zosuquidar]
reduction of free zosuquidar concentration in the receiver compartments ([9]; apical and basolateral, after 30 min, data not shown): 60–72% | zosuquidar left in solution ([9]; apical compartment): 1.55 ± 0.06% | zosuquidar left in solution ([9]; basolateral compartment): 7.01 ± 0.37% | zosuquidar recovery ([9]; in the Caco-2 monolayer): 58.7 ± 5.0% | zosuquidar recovery ([9]; in the cell culture plate): 31.8 ± 11.3% | zosuquidar plasma concentration ([5]; 2 h after a 5 mg/kg IV bolus): 0.13 µg/mL | Zosuquidar AUC0-6h [5, 14]: 94.2 ± 12.4 ng·h/mL | Zosuquidar Bioavailability [5, 14]: 2.81±0.37% | Zosuquidar Cmax [5, 14]: 23.7 ± 3.6 ng/mL | Zosuquidar t½ terminal [5, 14]: 2.88 ± 0.167 h | Zosuquidar tmax ([5]; group B: zosuquidar 20 mg/kg oral + etoposide 5 mg/kg IV, n = 6): 120[60;135] min | Zosuquidar AUC0-6h ([5]; group C: zosuquidar 5.0 mg/kg IV, mean ± SEM, n = 3): 830 ± 87 ng·h/mL | Zosuquidar CL ([5]; group C: zosuquidar 5.0 mg/kg IV, n = 3): 102 ± 12 mL/min/kg | Zosuquidar t½ terminal ([5]; group C: zosuquidar 5.0 mg/kg IV, two-compartment model, mean ± SEM, n = 3): 2.33 ± 0.4 h | Zosuquidar AUC0-6h [5, 15]: 4.45 ± 0.86 ng·h/mL | Zosuquidar Bioavailability [5, 15]: 4.21±0.81% | Zosuquidar Cmax [5, 15]: 1.34 ± 0.28 ng/mL | Zosuquidar t½ terminal [5, 15]: 1.37 ± 0.0917 h | Zosuquidar tmax ([5]; group F: zosuquidar 0.63 mg/kg oral + etoposide 20 mg/kg oral, n = 6): 120[101;120] min | Zosuquidar AUC0-6h [5, 16]: 8.67 ± 0.77 ng·h/mL | Zosuquidar Bioavailability [5, 16]: 2.58±0.23% | Zosuquidar Cmax [5, 16]: 2.10 ± 0.27 ng/mL | Zosuquidar t½ terminal [5, 16]: 3.62 ± 0.45 h | Zosuquidar tmax ([5]; group G: zosuquidar 2.0 mg/kg oral + etoposide 20 mg/kg oral, n = 6): 120[45;135] min | Zosuquidar AUC0-6h [5, 17]: 43.6 ± 5.4 ng·h/mL | Zosuquidar Bioavailability [5, 17]: 4.12±0.51% | Zosuquidar Cmax [5, 17]: 10.9 ± 1.2 ng/mL | Zosuquidar t½ terminal [5, 17]: 2.68 ± 0.217 h | Zosuquidar tmax ([5]; group H: zosuquidar 6.3 mg/kg oral + etoposide 20 mg/kg oral, n = 6): 90[45;120] min | Zosuquidar AUC0-6h [5, 18]: 118 ± 21 ng·h/mL | Zosuquidar Bioavailability [5, 18]: 3.52±0.62% | Zosuquidar Cmax [5, 18]: 31.3 ± 3.2 ng/mL | Zosuquidar t½ terminal [5, 18]: 3.23 ± 0.383 h | Zosuquidar AUC0-6h [5, 19]: 436 ± 91 ng·h/mL | Zosuquidar Bioavailability [5, 19]: 4.12±0.86% | Zosuquidar Cmax [5, 19]: 105 ± 21 ng/mL | Zosuquidar t½ terminal [5, 19]: 3.97 ± 0.233 h | Oral zosuquidar bioavailability ([5]; range over the oral zosuquidar doses, Sprague Dawley rats): 2.6–4.2% | predicted pKa [10]: 7.6 | tolerability of IV zosuquidar [11]: no reported issues | precipitation upon dilution in rSIF (visual) ([8]; 2.0 and 6.3 mg/mL zosuquidar (groups B, I, J)): precipitation was observed | initial zosuquidar solubility ([8]; formulation B (2.0 mg/mL zosuquidar) diluted 1:1 in rSIF): 450 µg/mL | dose strength being in solution ([8]; formulation B diluted 1:1 in rSIF): 44% | initial zosuquidar solubility ([8]; formulation I (2.0 mg/mL zosuquidar) diluted 1:1 in rSIF): 520 µg/mL | dose strength being in solution ([8]; formulation I diluted 1:1 in rSIF): 52% | initial zosuquidar solubility ([8]; formulation J (6.3 mg/mL zosuquidar) diluted 1:1 in rSIF): 470 µg/mL | dose strength being in solution ([8]; formulation J diluted 1:1 in rSIF): 15% | precipitation upon dilution in rSIF (visual) ([8]; lower zosuquidar concentrations): remained clear | in vitro-in vivo discrepancy of zosuquidar P-gp inhibition (P-gp): at least four orders of magnitude

lucifer yellow Papp (Caco-2 cell monolayers [12]; 100 μM lucifer yellow, Caco-2, not affected by zosuquidar): below 1.1 × 10^−6 cm/s | lucifer yellow recovery (Caco-2 cell monolayers [12]; Caco-2 permeability experiments): 82–110%
Compound: lucifer yellow
